Measurements as given in patent publication US8476064B2, “Inhibition assay method and device for detection of antibiotics” (Charm Sciences, Inc., priority 2006, dated 2013).

Experiments:
B.st. spores [1] = test: Single service kidney swab microbial growth inhibition test, culture of Example 1, with or without beta-lactam receptor; type: cell-based, Bacillus (Geobacillus) Stearothermophilus; conditions: for test result With receptor: with 1 U receptor
Protocol: A Bromocresol purple (BCP)/Tris Solution was prepared by combining 25 mL of a Trizma Base solution (TBS), the solution including 2.5 grams Trizma Base in 100 mL of reverse osmosis/deionized water (RO/DI Water), with 100 milligrams of BCP and mixing well. The media was prepared by dissolving 5 grams glucose and 1 gram Mueller Hinton Broth (Mueller Hinton broth includes, in purified filtered water, 2 grams per liter (g/L) beef extract, 17.5 g/L casein hydrolysate acid and 1.5 g/L starch, pH 7.3 at 25 degrees C) into 100 mL RO/DI Water. Then a 0.01 mg/mL solution of trimethoprim in RO/DI Water was prepared and 1.2 mL was added to the media. Next 20 mL of BCP/Tris (sterile filtered through 0.45 micron filter) was added to the media.
Agar was prepared by combining 0.3 grams Difco Bacto-Agar (Item #0140-01), 0.225 NaCl and 17.485 RO/DI Water. The mixture was heated to 95° C. and then removed from the heat and allowed to cool to 75° C. Next 6 mL of media (prepared as described above with BCP/Tris) was added to the agar and mixed for 5 minutes. The mixture was cooled to 57° C. and 1 mL spore solution (concentration of 1 billion cfu/mL) was added and mixed together for 5 minutes. 0.200 mL was dispensed into the bottom of a vial 4.
The dispensed vial 4 was prepared as described in example 1. An extractant was prepared by adding 4.8 grams of 47.2% Trizma Base and 52.5% Potassium Phosphate Monobasic to 1000 mL RO/DI Water (pH should be 7.5+/−0.10). The extractant was sealed within the niblet 5 and the niblet was added to the vial 4. The vial 4 was heat sealed with foil.
The single service kidney swab procedure was run by first making a 3 inch incision into kidney. The swab 1 was then withdrawn from the test unit, the test unit in the form of a POCKETSWAB, by gently pulling and twisting the handle 2 out of the test unit body 7. The swab 1 was then inserted into the incision of the kidney and allowed to sit for 15 minutes to allow full absorption of liquid into the swab 1. The swab 1 was reinserted by gently pushing down and twisting to engage the threads 6 and screwing the handle down slowly about halfway. The swab tip 3 punctured the seals 12, 13 & 14 immersing the swab tip 3 into the extractant within the niblet 5 where it sat for 2 minutes. The swab 1 was then screwed down all the way. After shaking and tapping the vial 4 to get residual liquid into the bottom of the vial 4 and in contact with the culture 15, we placed the vial 4 into a heat block set at 67° C. and incubated for 2.5 hours (if urine is tested instead of kidney, incubate for 4 hours).
Culture is prepared as in Example 1. Prior to dispensing 200 microliters into the vial 4, antibiotic binder is prepared, in this example an antibiotic binder from the cell wall of B.st., also known as receptor. Varying amounts of inhibitory receptor units are mixed into the culture. Receptor is defined as protein removed from cellular membrane of B.st. A receptor unit (1 U) is the amount of receptor that will, in the test, reverse the culture growth inhibition of 12.5 ppb of penicillin G.
Results in Table 1 are from tests using the culture described in Example 1 and with the addition of receptor added into rinse buffer (rinse buffer composition is 4.8 grams of 47.2% Trizma Base and 52.5% Potassium Phosphate Monobasic to 1000 mL RO/DI Water) at 0, 0.3 units (U), 1.0 U, 2.0 U, 5.0 Upper test. Sample contained the following amounts of penicillin G: 0, 5 parts per billion (ppb), 10 ppb, 12.5 ppb, 25 ppb and 50 ppb. As shown, 1.0 U was able to reverse the result of a 12.5 ppb penicillin G sample. Results are either positive (+) or negative (−).
Results are either positive (+), negative (−) or borderline between positive and negative (+/−). Abbreviations are penicillin G (PenG); sulfamethazine (SMZ); sulfadimethoxine (SDM); tylosin (TY); gentamicin (G); oxytetracycline (OT). […]

B.st. spores [2] = test: as above; type: cell-based, Bacillus (Geobacillus) Stearothermophilus; conditions: 12.5 ppb penicillin G; Receptor added dried on swab
[3] = drug concentration 250 (unit not given)
[4] = drug concentration 500 (unit not given)
[5] = drug concentration 750 (unit not given)
[6] = drug concentration 300 (unit not given)
[7] = drug concentration 800 (unit not given)
[8] = drug concentration 400 (unit not given)
[9] = drug concentration 600 (unit not given)

Q: With `CN(C)[C@@H]1C(O)=C(C(N)=O)C(=O)[C@@]2(O)C(O)=C3C(=O)c4c(O)cccc4[C@@](C)(O)[C@H]3[C@H](O)[C@@H]12` [OT, oxytetracycline] as the molecule, how does the “test result w/out receptor” value (B.st. spores [1]; [3]) read?
A: Its value is “+”.

Q: What about the “test result With receptor” value (B.st. spores [1]; [3]) of the same molecule?
A: The value was “+”.

Q: What about the “test result w/out receptor” value (B.st. spores [1]; [4]) of the same molecule?
A: Its value is “+”.

Q: And the “test result With receptor” value (B.st. spores [1]; [4])?
A: The value was “+”.

Q: And the “test result w/out receptor” value (B.st. spores [1]; [5])?
A: Its value is “+”.

Q: And the “test result With receptor” value (B.st. spores [1]; [5])?
A: Its value is “+”.

Q: What does the source list for `CC1(C)S[C@@H]2[C@H](NC(=O)Cc3ccccc3)C(=O)N2[C@H]1C(=O)O` [PenG, penicillin G]?
A: test result (B.st. spores [2]): −; test result (B.st. spores [1]; 12.5 ppb penicillin G, Control - no receptor): +; test result (B.st. spores [1]; 12.5 ppb penicillin G, Receptor added to buffer): −; test result (B.st. spores [1]; 12.5 ppb penicillin G, Receptor added to culture surface): −; test result (B.st. spores [1]; 12.5 ppb penicillin G, Receptor mixed in culture): −; test result (B.st. spores [1]; 50 ppb penicillin G, Control - no receptor): +; test result (B.st. spores [1]; 50 ppb penicillin G, Receptor added dried on swab): +; test result (B.st. spores [1]; 50 ppb penicillin G, Receptor added to buffer): +; test result (B.st. spores [1]; 50 ppb penicillin G, Receptor added to culture surface): +; test sensitivity to penicillin G (B.st. spores [1]; beta-lactam receptor 0.3 units to 5.0 units added to the top of the culture): reduced by varying amounts; test result w/out receptor (B.st. spores [1]; drug 12.5 ppb): +; test result With receptor (B.st. spores [1]; drug 12.5 ppb): −; test result w/out receptor (B.st. spores [1]; drug 25 ppb): +; test result With receptor (B.st. spores [1]; drug 25 ppb): +; test result (B.st. spores [1]; penicillin G 5 ppb in sample, receptor 0 U per test in rinse buffer): +; test result (B.st. spores [1]; penicillin G 5 ppb in sample, receptor 0.3 U per test in rinse buffer): −; test result (B.st. spores [1]; penicillin G 5 ppb in sample, receptor 1.0 U per test in rinse buffer): −; test result (B.st. spores [1]; penicillin G 5 ppb in sample, receptor 2.0 U per test in rinse buffer): −; test result (B.st. spores [1]; penicillin G 5 ppb in sample, receptor 5.0 U per test in rinse buffer): −; test result (B.st. spores [1]; penicillin G 10 ppb in sample, receptor 0 U per test in rinse buffer): +; test result (B.st. spores [1]; penicillin G 10 ppb in sample, receptor 0.3 U per test in rinse buffer): −; test result (B.st. spores [1]; penicillin G 10 ppb in sample, receptor 1.0 U per test in rinse buffer): −; test result (B.st. spores [1]; penicillin G 10 ppb in sample, receptor 2.0 U per test in rinse buffer): −; test result (B.st. spores [1]; penicillin G 10 ppb in sample, receptor 5.0 U per test in rinse buffer): −; test result (B.st. spores [1]; penicillin G 12.5 ppb in sample, receptor 0 U per test in rinse buffer): +; test result (B.st. spores [1]; penicillin G 12.5 ppb in sample, receptor 0.3 U per test in rinse buffer): +; test result (B.st. spores [1]; penicillin G 12.5 ppb in sample, receptor 1.0 U per test in rinse buffer): −; test result (B.st. spores [1]; penicillin G 12.5 ppb in sample, receptor 2.0 U per test in rinse buffer): −; test result (B.st. spores [1]; penicillin G 12.5 ppb in sample, receptor 5.0 U per test in rinse buffer): −; test result (B.st. spores [1]; penicillin G 25 ppb in sample, receptor 0 U per test in rinse buffer): +; test result (B.st. spores [1]; penicillin G 25 ppb in sample, receptor 0.3 U per test in rinse buffer): +; test result (B.st. spores [1]; penicillin G 25 ppb in sample, receptor 1.0 U per test in rinse buffer): +; test result (B.st. spores [1]; penicillin G 25 ppb in sample, receptor 2.0 U per test in rinse buffer): +; test result (B.st. spores [1]; penicillin G 25 ppb in sample, receptor 5.0 U per test in rinse buffer): +; test result (B.st. spores [1]; penicillin G 50 ppb in sample, receptor 0 U per test in rinse buffer): +; test result (B.st. spores [1]; penicillin G 50 ppb in sample, receptor 0.3 U per test in rinse buffer): +; test result (B.st. spores [1]; penicillin G 50 ppb in sample, receptor 1.0 U per test in rinse buffer): +; test result (B.st. spores [1]; penicillin G 50 ppb in sample, receptor 2.0 U per test in rinse buffer): +; test result (B.st. spores [1]; penicillin G 50 ppb in sample, receptor 5.0 U per test in rinse buffer): +

Q: What does the source list for `COc1cc(NS(=O)(=O)c2ccc(N)cc2)nc(OC)n1` [SDM, sulfadimethoxine]?
A: test result w/out receptor (B.st. spores [1]; drug 50 ppb): +/−; test result With receptor (B.st. spores [1]; drug 50 ppb): +/−; test result w/out receptor (B.st. spores [1]; drug 100 ppb): +/−; test result With receptor (B.st. spores [1]; drug 100 ppb): +/−; test result w/out receptor (B.st. spores [1]; drug 200 ppb): +; test result With receptor (B.st. spores [1]; drug 200 ppb): +

Q: Which results are given for `Cc1cc(C)nc(NS(=O)(=O)c2ccc(N)cc2)n1` [SMZ, sulfamethazine]?
A: test result w/out receptor (B.st. spores [1]; drug 50 ppb): −; test result With receptor (B.st. spores [1]; drug 50 ppb): −; test result w/out receptor (B.st. spores [1]; drug 100 ppb): +/−; test result With receptor (B.st. spores [1]; drug 100 ppb): +/−; test result w/out receptor (B.st. spores [1]; drug 200 ppb): +/−; test result With receptor (B.st. spores [1]; drug 200 ppb): +/−

Q: With `CC[C@H]1OC(=O)C[C@@H](O)[C@H](C)[C@@H](O[C@@H]2O[C@H](C)[C@@H](O[C@H]3C[C@@](C)(O)[C@@H](O)[C@H](C)O3)[C@H](N(C)C)[C@H]2O)[C@@H](CC=O)C[C@@H](C)C(=O)/C=C/C(C)=C/[C@@H]1CO[C@@H]1O[C@H](C)[C@@H](O)[C@@H](OC)[C@H]1OC` [TY, tylosin] as the molecule, how does the “test result w/out receptor” value (B.st. spores [1]; [6]) read?
A: The value was “+/−”.

Q: What about the “test result With receptor” value (B.st. spores [1]; [6]) of the same molecule?
A: The value was “+/−”.

Q: What about the “test result w/out receptor” value (B.st. spores [1]; [4]) of the same molecule?
A: The value was “+”.

Q: What about the “test result With receptor” value (B.st. spores [1]; [4]) of the same molecule?
A: The value was “+”.

Q: What about the “test result w/out receptor” value (B.st. spores [1]; [7]) of the same molecule?
A: Its value is “+”.

Q: And the “test result With receptor” value (B.st. spores [1]; [7])?
A: Its value is “+”.

Q: How did the “test result w/out receptor” value (B.st. spores [1]; [8]) turn out when gentamicin was run?
A: Its value is “+/−”.

Q: And the “test result With receptor” value (B.st. spores [1]; [8])?
A: Its value is “+/−”.

Q: What about the “test result w/out receptor” value (B.st. spores [1]; [9]) of the same molecule?
A: Its value is “+/−”.

Q: What about the “test result With receptor” value (B.st. spores [1]; [9]) of the same molecule?
A: Its value is “+/−”.

Q: And the “test result w/out receptor” value (B.st. spores [1]; [7])?
A: The value was “+/−”.

Q: What about the “test result With receptor” value (B.st. spores [1]; [7]) of the same molecule?
A: Its value is “+/−”.
